Test results as given in patent US20230000870A1, “METHODS OF TREATING CANCER IN BIOMARKER-IDENTIFIED PATIENTS WITH INHIBITORS OF CYCLIN-DEPENDENT KINASE 7 (CDK7)” (Syros Pharmaceuticals, Inc., priority 2019, published 2023).

Columns and labels:
HCC70 cells = assay: Inhibition of proliferation of HCC70 cells (CyQUANT Direct, 72 hour); format: cell-based, human; settings: read-out: Inhibition of Proliferation of HCC70 Cells (calculated IC50)
Protocol: HCC70 cells: HCC70 cells are a cell line derived from human triple negative breast cancer. Representative compounds of the invention were tested at different concentrations (from 4 μM to […]; 0.5 log serial dilutions) for their ability to inhibit the proliferation of HCC70 cells. Known CDK inhibitors dinaciclib or N-((1S,3R)-3-((5-chloro-4-(1H-indol-3-yl) pyrimidin-2-yl)amino)cyclohexyl)-5-((E)-4-(dimethylamino)but-2-enamido)picolinamide and triptolide were used as positive controls. Cells were grown in ATCC-formulated RPMI-1640 Medium (ATCC 30-2001)+10% FBS. The cells were cultured at 37° C. in a humidified chamber in the presence of 5% CO2. Proliferation assays were conducted over a 72 hour time period. CyQUANT® Direct Cell Proliferation Assay (Life Technologies, Chicago, Ill. USA) was used to assess the anti-proliferative effects of the compounds following manufacturer's directions and utilizing the reagents supplied with the CyQUANT® Direct Cell kit.

[1] = target: CDK7/Cyclin H/MAT1 complex (Homo sapiens, UniProt P50613); assay: CDK7 kinase inhibition assay (Caliper/LabChip EZ Reader); format: biochemical; settings: CDK7/Cyclin H/MAT1 6 nM, ATP 2 mM, 35 min at 27° C.
Chain of CDK7/Cyclin H/MAT1 complex (P50613 whole entry): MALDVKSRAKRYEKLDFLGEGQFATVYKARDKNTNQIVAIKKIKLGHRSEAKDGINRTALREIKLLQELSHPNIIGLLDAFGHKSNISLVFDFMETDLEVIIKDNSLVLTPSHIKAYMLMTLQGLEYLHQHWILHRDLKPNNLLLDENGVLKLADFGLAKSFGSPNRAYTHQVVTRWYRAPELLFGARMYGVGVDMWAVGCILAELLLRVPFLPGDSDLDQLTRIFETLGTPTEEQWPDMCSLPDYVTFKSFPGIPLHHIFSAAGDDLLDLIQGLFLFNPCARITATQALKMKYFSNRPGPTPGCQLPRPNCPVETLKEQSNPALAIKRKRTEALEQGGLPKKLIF
Chain of CDK7/Cyclin H/MAT1 complex (P51946 whole entry partner): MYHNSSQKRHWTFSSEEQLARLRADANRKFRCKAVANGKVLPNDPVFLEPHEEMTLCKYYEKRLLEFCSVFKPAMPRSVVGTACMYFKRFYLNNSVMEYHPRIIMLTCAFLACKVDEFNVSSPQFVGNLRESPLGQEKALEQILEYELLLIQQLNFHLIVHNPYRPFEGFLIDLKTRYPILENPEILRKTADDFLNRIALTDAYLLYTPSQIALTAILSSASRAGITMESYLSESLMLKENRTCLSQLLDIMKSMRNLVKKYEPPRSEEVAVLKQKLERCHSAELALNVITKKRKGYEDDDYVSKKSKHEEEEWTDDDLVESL
Chain of CDK7/Cyclin H/MAT1 complex (P51948 whole entry partner): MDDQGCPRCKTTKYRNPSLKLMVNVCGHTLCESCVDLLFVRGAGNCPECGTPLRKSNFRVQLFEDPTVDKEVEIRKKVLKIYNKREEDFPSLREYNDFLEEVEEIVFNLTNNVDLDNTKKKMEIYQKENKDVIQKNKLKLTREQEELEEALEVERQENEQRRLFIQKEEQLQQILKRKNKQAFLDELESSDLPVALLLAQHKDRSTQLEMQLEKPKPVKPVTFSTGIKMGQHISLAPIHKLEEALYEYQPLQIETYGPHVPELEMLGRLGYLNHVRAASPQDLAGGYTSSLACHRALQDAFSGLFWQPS
Method in brief: (§1)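 Caliper/LabChip mobility-shift kinase assays at 27° C. CDK9/Cyclin T1 8 nM with 2 μM 5-FAM-CDK9tide, 10 mM MgCl2, 15 min; CDK12/Cyclin K 50 nM with 5-FAM-CDK9tide 2 μM, 2 mM MgCl2, 3 hr; CDK2/Cyclin E1 0.5 nM with 5-FAM-CDK7tide 2 μM, 2 mM MgCl2, 35 min; CDK7 35 min.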

CDK9/Cyclin T1 complex = CDK9/Cyclin T1 complex (Homo sapiens, UniProt P50750); assay: CDK9 kinase inhibition assay (Caliper/LabChip EZ Reader); format: biochemical; settings: CDK9/Cyclin T1 8 nM, ATP 2 mM, 15 min at 27° C.
Chain of CDK9/Cyclin T1 complex (P50750 whole entry): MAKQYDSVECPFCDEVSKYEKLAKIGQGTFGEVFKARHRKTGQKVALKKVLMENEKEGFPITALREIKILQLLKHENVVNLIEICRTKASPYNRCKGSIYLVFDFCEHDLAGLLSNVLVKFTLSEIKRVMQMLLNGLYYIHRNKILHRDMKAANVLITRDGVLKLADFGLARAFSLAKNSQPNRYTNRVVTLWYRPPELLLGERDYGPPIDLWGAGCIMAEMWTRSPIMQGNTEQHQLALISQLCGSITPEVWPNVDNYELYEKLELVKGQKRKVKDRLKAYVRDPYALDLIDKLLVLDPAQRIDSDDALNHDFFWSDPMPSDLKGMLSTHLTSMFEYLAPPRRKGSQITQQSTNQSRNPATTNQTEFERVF
Chain of CDK9/Cyclin T1 complex (O60563 whole entry partner): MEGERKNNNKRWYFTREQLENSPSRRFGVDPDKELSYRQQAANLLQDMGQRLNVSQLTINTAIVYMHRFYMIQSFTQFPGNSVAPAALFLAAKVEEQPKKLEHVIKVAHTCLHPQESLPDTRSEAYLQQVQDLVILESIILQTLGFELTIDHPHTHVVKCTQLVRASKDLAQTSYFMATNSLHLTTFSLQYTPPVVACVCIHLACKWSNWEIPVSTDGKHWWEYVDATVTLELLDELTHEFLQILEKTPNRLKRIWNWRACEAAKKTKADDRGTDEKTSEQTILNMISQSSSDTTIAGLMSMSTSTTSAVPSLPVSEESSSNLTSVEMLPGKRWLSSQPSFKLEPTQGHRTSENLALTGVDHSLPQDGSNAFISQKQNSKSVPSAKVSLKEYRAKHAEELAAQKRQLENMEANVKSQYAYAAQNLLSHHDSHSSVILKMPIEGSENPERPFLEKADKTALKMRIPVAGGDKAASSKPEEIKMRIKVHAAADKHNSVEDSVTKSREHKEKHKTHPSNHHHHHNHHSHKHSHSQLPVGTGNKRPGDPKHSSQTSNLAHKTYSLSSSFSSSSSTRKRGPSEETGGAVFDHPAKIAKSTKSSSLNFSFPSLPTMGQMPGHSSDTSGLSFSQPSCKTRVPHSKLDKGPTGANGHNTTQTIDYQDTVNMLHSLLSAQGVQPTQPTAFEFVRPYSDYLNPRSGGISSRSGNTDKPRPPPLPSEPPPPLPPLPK
Method in brief: as §1

CDK2/Cyclin E1 complex = CDK2/Cyclin E1 complex (Homo sapiens, UniProt P24941); assay: CDK2 kinase inhibition assay (Caliper/LabChip EZ Reader); format: biochemical; settings: CDK2/Cyclin E1 0.5 nM, ATP 2 mM, 35 min at 27° C.
Method in brief: as §1

[2] = target: T1, CDK12 (aa686-1082)/Cyclin K complex (Homo sapiens, UniProt Q9NYV4); assay: CDK12 kinase inhibition assay (Caliper/LabChip EZ Reader); format: biochemical; settings: CDK12 (aa686-1082)/Cyclin K 50 nM, ATP 2 mM, 3 hr at 27° C.
T1 construct: CDK12 (aa686-1082)/Cyclin K complex
T1 sequence (Q9NYV4 686-1082): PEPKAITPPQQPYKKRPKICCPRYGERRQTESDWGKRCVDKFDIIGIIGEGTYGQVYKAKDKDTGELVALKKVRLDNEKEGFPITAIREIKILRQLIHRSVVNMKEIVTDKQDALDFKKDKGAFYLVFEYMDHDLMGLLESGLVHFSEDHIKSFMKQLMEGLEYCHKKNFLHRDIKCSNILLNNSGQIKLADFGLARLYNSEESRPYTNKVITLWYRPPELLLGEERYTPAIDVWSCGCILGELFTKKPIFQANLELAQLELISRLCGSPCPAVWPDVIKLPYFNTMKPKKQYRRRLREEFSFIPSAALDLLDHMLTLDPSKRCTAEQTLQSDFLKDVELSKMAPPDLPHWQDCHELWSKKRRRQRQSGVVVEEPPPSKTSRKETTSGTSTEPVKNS
T1 sequence (O75909 whole entry partner, the tested form may be a part): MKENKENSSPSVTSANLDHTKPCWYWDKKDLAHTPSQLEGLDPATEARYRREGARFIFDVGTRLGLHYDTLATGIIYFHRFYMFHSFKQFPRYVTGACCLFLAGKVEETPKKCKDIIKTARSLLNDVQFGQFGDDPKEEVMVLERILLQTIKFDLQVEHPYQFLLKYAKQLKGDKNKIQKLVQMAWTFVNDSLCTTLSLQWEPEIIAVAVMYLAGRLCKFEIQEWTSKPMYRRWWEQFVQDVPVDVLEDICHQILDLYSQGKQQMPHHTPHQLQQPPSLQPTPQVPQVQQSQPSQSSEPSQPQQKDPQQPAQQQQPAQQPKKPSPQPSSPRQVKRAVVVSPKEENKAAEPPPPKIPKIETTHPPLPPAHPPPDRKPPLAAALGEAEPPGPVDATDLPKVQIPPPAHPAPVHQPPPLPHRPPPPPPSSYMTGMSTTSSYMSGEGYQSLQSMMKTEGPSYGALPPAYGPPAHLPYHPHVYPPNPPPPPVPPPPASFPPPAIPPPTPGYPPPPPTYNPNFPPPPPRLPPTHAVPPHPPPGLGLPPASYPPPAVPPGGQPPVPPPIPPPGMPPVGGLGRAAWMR
Method in brief: as §1

| SMILES | IC50 (HCC70 cells) [nM] | IC50 [1] [nM] | IC50 (CDK9/Cyclin T1 complex) [µM] | IC50 (CDK2/Cyclin E1 complex) [µM] | IC50 [2] [µM] |
| --- | --- | --- | --- | --- | --- |
| O=C1CCc2ccc(-c3ccc4c(-c5nc(NC6CCCNC6)ncc5C(F)(F)F)c[nH]c4c3)cc2N1 (centres unmarked) [Compound 334] | 100 to 1000 | 20 to 200 | 0.2 to 5 | 0.2 to 5 | 0.2 to 5 |
| Cc1ccncc1-c1ccc2c(-c3nc(NC4CCCNC4)ncc3C(F)(F)F)c[nH]c2c1 (centres unmarked) [Compound 336] | < 100 | < 20 | 0.2 to 5 | 0.2 to 5 | 0.2 to 5 |
| CC(=O)NCc1cccc(-c2ccc3c(-c4nc(NC5CCCNC5)ncc4C(F)(F)F)c[nH]c3c2)c1 (centres unmarked) [Compound 338] | 100 to 1000 | 20 to 200 | 0.2 to 5 | 0.2 to 5 | 0.2 to 5 |
| FC(F)(F)c1cnc(NC2CCCNC2)nc1-c1c[nH]c2cc(-c3ccnc4ccccc34)ccc12 (centres unmarked) [Compound 339] | 1000 to 5000 | 20 to 200 | ≥ 5 | ≥ 5 | 0.2 to 5 |
| O=C(c1cccc(-c2ccc3c(-c4nc(NC5CCCNC5)ncc4C(F)(F)F)c[nH]c3c2)c1)N1CCCC1 (centres unmarked) [Compound 340] | 1000 to 5000 | 20 to 200 | 0.2 to 5 | 0.2 to 5 | 0.2 to 5 |
| FC(F)(F)c1cnc(N[C@H]2CCCNC2)nc1-c1c[nH]c2cc(-c3cccc(Oc4ccccc4)c3)ccc12 [Compound 341] | 1000 to 5000 | 200 to 5000 | ≥ 5 | ≥ 5 | ≥ 5 |
| FC(F)(F)c1cnc(NC2CCCNC2)nc1-c1c[nH]c2cc(-c3ccc4c(c3)OCCO4)ccc12 (centres unmarked) [Compound 342] | 1000 to 5000 | 20 to 200 | ≥ 5 | ≥ 5 | 0.2 to 5 |
| FC(F)(F)c1cnc(N[C@H]2CCCNC2)nc1-c1c[nH]c2cc(-c3ccc4ncsc4c3)ccc12 [Compound 343] | 100 to 1000 | 20 to 200 | 0.2 to 5 | 0.2 to 5 | 0.2 to 5 |
| FC(F)(F)c1cnc(N[C@H]2CCCNC2)nc1-c1c[nH]c2cc(-c3cccc4cnccc34)ccc12 [Compound 344] | 100 to 1000 | 20 to 200 | ≥ 5 | 0.2 to 5 | 0.2 to 5 |
| Fc1cccc(-c2ccc3c(-c4nc(NC5CCCNC5)ncc4C(F)(F)F)c[nH]c3c2)c1 (centres unmarked) [Compound 345] | 1000 to 5000 | 200 to 5000 | ≥ 5 | ≥ 5 | ≥ 5 |
| CC(C)S(=O)(=O)c1ccc2c(-c3nc(NC4CCCNC4)ncc3C(F)(F)F)c[nH]c2c1 (centres unmarked) [Compound 346] | 100 to 1000 | 20 to 200 | 0.2 to 5 | 0.2 to 5 | 0.2 to 5 |
| O=S1(=O)CCn2cc(-c3nc(N[C@H]4CCCNC4)ncc3C(F)(F)F)c3cccc1c32 [Compound 348] | 100 to 1000 | 20 to 200 | ≥ 5 | ≥ 5 | ≥ 5 |
| O=C(c1ccc2c(-c3nc(NC4CCCNC4)ncc3C(F)(F)F)c[nH]c2c1)N1CC(O)C(F)(F)C1 (centres unmarked) [Compound 349] | 100 to 1000 | < 20 | 0.2 to 5 | 0.2 to 5 | 0.2 to 5 |
| CC1(C)CCC(Nc2ncc(C(F)(F)F)c(-c3c[nH]c4cc(C#N)ccc34)n2)CN1 (centres unmarked) [Compound 350] | 100 to 1000 | 20 to 200 | ≥ 5 | ≥ 5 | 0.2 to 5 |
| N#Cc1ccc2c(-c3nc(N[C@@H]4CNCC[C@H]4F)ncc3C(F)(F)F)c[nH]c2c1 [Compound 351] | < 100 | < 20 | 0.2 to 5 | 0.2 to 5 | 0.2 to 5 |
| CC(C)(C)OC(=O)N1CCC[C@H](Nc2ncc(C(F)(F)F)c(-c3c[nH]c4cc(P(C)(C)=O)ccc34)n2)C1 [Compound 352] | 1000 to 5000 | ≥ 5000 | ≥ 5 | ≥ 5 | ≥ 5 |
| CP(C)(=O)c1cccc2c(-c3nc(NC4CCCNC4)ncc3C(F)(F)F)c[nH]c12 (centres unmarked) [Compound 353] | < 100 | < 20 | ≥ 5 | 0.2 to 5 | 0.2 to 5 |
| CP(C)(=O)c1ccc2c(-c3nc(NC4CCCNC4)ncc3C(F)(F)F)c[nH]c2c1 (centres unmarked) [Compound 354] | 1000 to 5000 | 20 to 200 | ≥ 5 | ≥ 5 | 0.2 to 5 |
| N#Cc1ccc2c(-c3nc(NC4CNCCC4O)ncc3C(F)(F)F)c[nH]c2c1 (centres unmarked) [Compound 355] | 100 to 1000 | 20 to 200 | ≥ 5 | ≥ 5 | 0.2 to 5 |
| CCc1cnc(NC2CCCNC2)nc1-c1c[nH]c2c(S(=O)(=O)C(C)C)cccc12 (centres unmarked) [Compound 356] | 100 to 1000 | 20 to 200 | ≥ 5 | ≥ 5 | ≥ 5 |
| CN(C)S(=O)(=O)c1ccc2c(-c3nc(NC4CCCNC4)ncc3C(F)(F)F)c[nH]c2c1 (centres unmarked) [Compound 357] | 1000 to 5000 | < 20 | 0.2 to 5 | 0.2 to 5 | 0.2 to 5 |
| CC(=O)c1ccc2c(-c3nc(N[C@H]4CCCNC4)ncc3C(F)(F)F)c[nH]c2c1 [Compound 359] | < 100 | < 20 | 0.2 to 5 | 0.2 to 5 | 0.2 to 5 |
| CCc1cnc(N[C@H]2CCCNC2)nc1-c1c[nH]c2c(F)c(C#N)ccc12 [Compound 360] | 1000 to 5000 | 20 to 200 | ≥ 5 | ≥ 5 | ≥ 5 |
| N#Cc1ccc2c(-c3nc(N[C@H]4CCCNC4)ncc3SC(F)F)c[nH]c2c1 [Compound 361] | 100 to 1000 | 20 to 200 | 0.2 to 5 | ≥ 5 | 0.2 to 5 |
| CN1CCC[C@H](Nc2ncc(C(F)(F)F)c(-c3c[nH]c4cc(S(C)(=O)=O)ccc34)n2)C1 [Compound 364] | 1000 to 5000 | 20 to 200 | ≥ 5 | ≥ 5 | ≥ 5 |
| O=S(=O)(CF)c1ccc2c(-c3nc(NC4CCCNC4)ncc3C(F)(F)F)c[nH]c2c1 (centres unmarked) [Compound 365] | 100 to 1000 | < 20 | 0.2 to 5 | 0.2 to 5 | 0.2 to 5 |
| CC1(O)CCN(S(=O)(=O)c2ccc3c(-c4nc(NC5CCCNC5)ncc4C(F)(F)F)c[nH]c3c2)C1 (centres unmarked) [Compound 366] | 1000 to 5000 | 20 to 200 | 0.2 to 5 | 0.2 to 5 | 0.2 to 5 |
| CCCc1cnc(N[C@H]2CCCNC2)nc1-c1c[nH]c2c(S(C)(=O)=O)c(C#N)ccc12 [Compound 367] | 1000 to 5000 | 20 to 200 | ≥ 5 | ≥ 5 | ≥ 5 |
